Reference: the supplement of paper PMC8612539
Converted amounts (≈) assume the structure as drawn.

What was measured:
[1] = tested on: Mannheimia haemolytica; assay: minimum inhibitory concentration (MIC)
Protocol: (§1)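 Broth microdilution MIC (Sensititre BOPO7F bovine plate, CLSI methods) of 19 antimicrobials against field isolates of P. multocida, M. haemolytica, H. somni (deep nasopharyngeal swabs) and E. coli, Enterococcus spp. (rectal swabs) from weaned dairy heifers. Incubation 16-24 h at 35 C. MIC is the lowest concentration preventing visible growth. Values with <= or > lie at the tested range limits. Trimethoprim-sulfamethoxazole is given as the trimethoprim component of a 1:19 mixture.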

[2] = tested on: Enterococcus spp.; assay: minimum inhibitory concentration (MIC)
Protocol: as §1

CC1(C)S[C@@H]2[C@H](NC(=O)Cc3ccccc3)C(=O)N2[C@H]1C(=O)O [Penicillin]
minimum inhibitory concentration [µg/mL]
Conditions | [1] | [2]
isolate (source animal id): 2 | – | ≤ 0.12
isolate (source animal id): 8 | 0.25 (≈ 0.748 µM) | –
isolate (source animal id): 13 | 0.25 (≈ 0.748 µM) | –
isolate (source animal id): 18 | ≤ 0.12 | –
isolate (source animal id): 21 | 0.25 (≈ 0.748 µM) | –
isolate (source animal id): 25 | 0.25 (≈ 0.748 µM) | –
isolate (source animal id): 27 | 0.25 (≈ 0.748 µM) | –
isolate (source animal id): 28 | > 8 | –
isolate (source animal id): 30 | ≤ 0.12 | –
isolate (source animal id): 31 | > 8 | –
isolate (source animal id): 32 | ≤ 0.12 | –
isolate (source animal id): 34 | ≤ 0.12 | –
isolate (source animal id): 35 | – | 2 (≈ 5.98 µM)
isolate (source animal id): 36 | ≤ 0.12 | –
isolate (source animal id): 37 | ≤ 0.12 | –
isolate (source animal id): 40 | ≤ 0.12 | –
isolate (source animal id): 41 | ≤ 0.12 | –
isolate (source animal id): 42 | – | 2 (≈ 5.98 µM)
isolate (source animal id): 43 | 0.25 (≈ 0.748 µM) | –
isolate (source animal id): 44 | – | 2 (≈ 5.98 µM)
isolate (source animal id): 46 | ≤ 0.12 | –
isolate (source animal id): 49 | ≤ 0.12 | –
isolate (source animal id): 50 | > 8 | –
isolate (source animal id): 51 | 0.25 (≈ 0.748 µM) | –
isolate (source animal id): 52 | ≤ 0.12 | –
isolate (source animal id): 53 | ≤ 0.12 | –
isolate (source animal id): 55 | ≤ 0.12 | –
isolate (source animal id): 56 | ≤ 0.12 | –
isolate (source animal id): 57 | 0.25 (≈ 0.748 µM) | –
isolate (source animal id): 79 | – | 2 (≈ 5.98 µM)
isolate (source animal id): 88 | – | ≤ 0.12
isolate (source animal id): 91 | – | ≤ 0.12
isolate (source animal id): 92 | – | 0.5 (≈ 1.5 µM)
isolate (source animal id): 100 | ≤ 0.12 | –
isolate (source animal id): 103 | ≤ 0.12 | –
isolate (source animal id): 107 | ≤ 0.12 | –
isolate (source animal id): 108 | ≤ 0.12 | –
isolate (source animal id): 111 | – | ≤ 0.12
isolate (source animal id): 112 | 0.25 (≈ 0.748 µM) | –
isolate (source animal id): 113 | 0.5 (≈ 1.5 µM) | –
isolate (source animal id): 121 | > 8 | –
isolate (source animal id): 122 | 0.25 (≈ 0.748 µM) | 2 (≈ 5.98 µM)
isolate (source animal id): 123 | 1 (≈ 2.99 µM) | 1 (≈ 2.99 µM)
isolate (source animal id): 126 | > 8 | –
isolate (source animal id): 133 | 0.5 (≈ 1.5 µM) | 1 (≈ 2.99 µM)
isolate (source animal id): 135 | 0.25 (≈ 0.748 µM) | –
isolate (source animal id): 138 | > 8 | –
isolate (source animal id): 141 | ≤ 0.12 | –
isolate (source animal id): 142 | 0.25 (≈ 0.748 µM) | –
isolate (source animal id): 145 | 0.25 (≈ 0.748 µM) | –
isolate (source animal id): 149 | ≤ 0.12 | –
isolate (source animal id): 151 | 0.25 (≈ 0.748 µM) | –
isolate (source animal id): 152 | ≤ 0.12 | –
isolate (source animal id): 154 | 0.5 (≈ 1.5 µM) | –
isolate (source animal id): 158 | – | 2 (≈ 5.98 µM)
isolate (source animal id): 159 | > 8 | –
isolate (source animal id): 162 | > 8 | –
isolate (source animal id): 168 | – | 4 (≈ 12 µM)
isolate (source animal id): 169 | – | 4 (≈ 12 µM)
isolate (source animal id): 170 | > 8 | –
isolate (source animal id): 171 | 0.5 (≈ 1.5 µM) | 1 (≈ 2.99 µM)
isolate (source animal id): 172 | > 8 | –
isolate (source animal id): 173 | > 8 | –
isolate (source animal id): 175 | – | 4 (≈ 12 µM)
isolate (source animal id): 177 | – | 2 (≈ 5.98 µM)
isolate (source animal id): 179 | > 8 | –
isolate (source animal id): 180 | > 8 | –
isolate (source animal id): 181 | – | 4 (≈ 12 µM)
isolate (source animal id): 182 | – | 4 (≈ 12 µM)
isolate (source animal id): 183 | > 8 | 2 (≈ 5.98 µM)
isolate (source animal id): 186 | > 8 | –
isolate (source animal id): 187 | > 8 | 4 (≈ 12 µM)
isolate (source animal id): 188 | > 8 | –
isolate (source animal id): 190 | 0.5 (≈ 1.5 µM) | 4 (≈ 12 µM)
isolate (source animal id): 191 | > 8 | –
isolate (source animal id): 192 | 0.25 (≈ 0.748 µM) | –
isolate (source animal id): 194 | – | 1 (≈ 2.99 µM)
isolate (source animal id): 195 | – | 4 (≈ 12 µM)
isolate (source animal id): 197 | – | 0.5 (≈ 1.5 µM)
isolate (source animal id): 201 | > 8 | –
isolate (source animal id): 202 | > 8 | –
isolate (source animal id): 209 | > 8 | –
isolate (source animal id): 211 | > 8 | 4 (≈ 12 µM)
isolate (source animal id): 214 | – | 2 (≈ 5.98 µM)
isolate (source animal id): 220 | > 8 | –
isolate (source animal id): 221 | > 8 | –
isolate (source animal id): 222 | – | 1 (≈ 2.99 µM)
isolate (source animal id): 223 | > 8 | 1 (≈ 2.99 µM)
isolate (source animal id): 228 | – | 2 (≈ 5.98 µM)
isolate (source animal id): 230 | – | 8 (≈ 23.9 µM)
isolate (source animal id): 233 | > 8 | –
isolate (source animal id): 235 | – | 2 (≈ 5.98 µM)
isolate (source animal id): 236 | – | 2 (≈ 5.98 µM)
isolate (source animal id): 237 | 0.25 (≈ 0.748 µM) | –
isolate (source animal id): 239 | – | 1 (≈ 2.99 µM)
isolate (source animal id): 241 | > 8 | 4 (≈ 12 µM)
isolate (source animal id): 244 | – | 1 (≈ 2.99 µM)
isolate (source animal id): 246 | – | 1 (≈ 2.99 µM)
isolate (source animal id): 247 | – | 8 (≈ 23.9 µM)
isolate (source animal id): 250 | – | 1 (≈ 2.99 µM)
isolate (source animal id): 252 | 0.25 (≈ 0.748 µM) | 2 (≈ 5.98 µM)
isolate (source animal id): 253 | 0.25 (≈ 0.748 µM) | –
isolate (source animal id): 259 | > 8 | –
isolate (source animal id): 260 | ≤ 0.12 | –
isolate (source animal id): 262 | > 8 | –
isolate (source animal id): 268 | – | ≤ 0.12
isolate (source animal id): 282 | > 8 | 2 (≈ 5.98 µM)
isolate (source animal id): 285 | – | 2 (≈ 5.98 µM)
isolate (source animal id): 287 | 0.25 (≈ 0.748 µM) | –
isolate (source animal id): 288 | 0.5 (≈ 1.5 µM) | –
isolate (source animal id): 289 | – | 0.5 (≈ 1.5 µM)
isolate (source animal id): 290 | – | 0.25 (≈ 0.748 µM)
isolate (source animal id): 291 | ≤ 0.12 | –
isolate (source animal id): 293 | 0.25 (≈ 0.748 µM) | –
isolate (source animal id): 296 | – | 0.5 (≈ 1.5 µM)
isolate (source animal id): 298 | ≤ 0.12 | ≤ 0.12
isolate (source animal id): 299 | 0.25 (≈ 0.748 µM) | –
isolate (source animal id): 300 | ≤ 0.12 | –
isolate (source animal id): 301 | – | ≤ 0.12
isolate (source animal id): 302 | ≤ 0.12 | –
isolate (source animal id): 304 | ≤ 0.12 | –
isolate (source animal id): 306 | ≤ 0.12 | –
isolate (source animal id): 308 | ≤ 0.12 | –
isolate (source animal id): 309 | ≤ 0.12 | –
isolate (source animal id): 310 | – | 4 (≈ 12 µM)
isolate (source animal id): 313 | 0.25 (≈ 0.748 µM) | –
isolate (source animal id): 318 | ≤ 0.12 | –
isolate (source animal id): 320 | ≤ 0.12 | 0.5 (≈ 1.5 µM)
isolate (source animal id): 321 | ≤ 0.12 | –
isolate (source animal id): 323 | 0.25 (≈ 0.748 µM) | –
isolate (source animal id): 324 | ≤ 0.12 | –
isolate (source animal id): 326 | ≤ 0.12 | –
isolate (source animal id): 328 | 0.25 (≈ 0.748 µM) | –
isolate (source animal id): 329 | 0.25 (≈ 0.748 µM) | –
isolate (source animal id): 331 | – | ≤ 0.12
isolate (source animal id): 333 | ≤ 0.12 | 0.25 (≈ 0.748 µM)
isolate (source animal id): 335 | 0.5 (≈ 1.5 µM) | –
isolate (source animal id): 338 | 0.25 (≈ 0.748 µM) | –
isolate (source animal id): 341 | – | 2 (≈ 5.98 µM)
